Results published in paper PMC9851200, “Multiparameter phenotypic screening for endogenous TFEB and TFE3 translocation identifies novel chemical series modulating lysosome function” (Autophagy, 2022).

Tests used:
Type in all cases: binding
[1] = target: T1, kinases (KINOMEscan panel) (Homo sapiens, UniProt O15197); settings: kinase EPHB6; NEW KINOMEscan
T1 sequence (O15197 32-1021): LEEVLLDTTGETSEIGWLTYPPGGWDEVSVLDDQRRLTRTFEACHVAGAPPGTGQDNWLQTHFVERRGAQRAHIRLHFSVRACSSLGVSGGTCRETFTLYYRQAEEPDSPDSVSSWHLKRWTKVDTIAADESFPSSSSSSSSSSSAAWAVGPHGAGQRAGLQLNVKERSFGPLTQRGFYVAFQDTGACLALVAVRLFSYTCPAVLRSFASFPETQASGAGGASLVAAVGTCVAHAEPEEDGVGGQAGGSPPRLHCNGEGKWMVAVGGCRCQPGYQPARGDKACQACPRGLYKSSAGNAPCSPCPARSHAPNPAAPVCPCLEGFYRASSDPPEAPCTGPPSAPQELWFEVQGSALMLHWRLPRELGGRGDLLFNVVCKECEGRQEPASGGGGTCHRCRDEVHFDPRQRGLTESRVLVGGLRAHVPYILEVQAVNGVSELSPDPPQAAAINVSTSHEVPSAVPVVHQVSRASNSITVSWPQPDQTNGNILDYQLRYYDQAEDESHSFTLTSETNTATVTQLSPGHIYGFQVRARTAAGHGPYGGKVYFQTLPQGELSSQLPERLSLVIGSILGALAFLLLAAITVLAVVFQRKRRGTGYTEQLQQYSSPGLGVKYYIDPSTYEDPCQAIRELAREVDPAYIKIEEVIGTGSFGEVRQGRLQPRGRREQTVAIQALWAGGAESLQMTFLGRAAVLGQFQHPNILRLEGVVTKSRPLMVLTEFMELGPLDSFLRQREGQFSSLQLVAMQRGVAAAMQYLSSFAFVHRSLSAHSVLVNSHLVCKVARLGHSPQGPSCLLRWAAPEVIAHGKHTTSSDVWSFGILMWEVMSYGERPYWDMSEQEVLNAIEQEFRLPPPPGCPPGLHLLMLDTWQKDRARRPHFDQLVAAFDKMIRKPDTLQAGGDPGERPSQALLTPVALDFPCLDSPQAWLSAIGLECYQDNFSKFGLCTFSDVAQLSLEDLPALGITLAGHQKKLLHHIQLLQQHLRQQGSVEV

[2] = target: kinases (KINOMEscan panel) (Homo sapiens, UniProt P53667); settings: kinase LIMK1; NEW KINOMEscan
Chain of kinases (KINOMEscan panel) (Homo sapiens, UniProt P53667) (P53667 whole entry): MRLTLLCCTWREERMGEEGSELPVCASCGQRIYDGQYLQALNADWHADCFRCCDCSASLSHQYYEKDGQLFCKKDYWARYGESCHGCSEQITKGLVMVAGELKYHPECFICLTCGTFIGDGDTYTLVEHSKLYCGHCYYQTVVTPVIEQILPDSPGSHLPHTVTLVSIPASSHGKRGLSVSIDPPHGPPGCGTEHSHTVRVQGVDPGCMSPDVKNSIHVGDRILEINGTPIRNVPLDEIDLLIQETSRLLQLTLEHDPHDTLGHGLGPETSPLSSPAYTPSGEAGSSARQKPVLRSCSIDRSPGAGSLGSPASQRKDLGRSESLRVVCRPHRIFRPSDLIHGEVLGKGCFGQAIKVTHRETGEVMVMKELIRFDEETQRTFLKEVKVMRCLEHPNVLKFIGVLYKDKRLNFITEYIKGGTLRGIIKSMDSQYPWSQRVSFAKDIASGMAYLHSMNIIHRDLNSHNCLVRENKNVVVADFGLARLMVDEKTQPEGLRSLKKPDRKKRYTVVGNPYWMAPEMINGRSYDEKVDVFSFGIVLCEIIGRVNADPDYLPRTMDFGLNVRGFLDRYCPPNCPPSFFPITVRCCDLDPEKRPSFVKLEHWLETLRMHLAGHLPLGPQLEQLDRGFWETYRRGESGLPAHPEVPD

[3] = target: kinases (KINOMEscan panel) (Homo sapiens, UniProt P0C1S8); settings: WEE2; NEW KINOMEscan
Chain of kinases (KINOMEscan panel) (Homo sapiens, UniProt P0C1S8) (P0C1S8 whole entry): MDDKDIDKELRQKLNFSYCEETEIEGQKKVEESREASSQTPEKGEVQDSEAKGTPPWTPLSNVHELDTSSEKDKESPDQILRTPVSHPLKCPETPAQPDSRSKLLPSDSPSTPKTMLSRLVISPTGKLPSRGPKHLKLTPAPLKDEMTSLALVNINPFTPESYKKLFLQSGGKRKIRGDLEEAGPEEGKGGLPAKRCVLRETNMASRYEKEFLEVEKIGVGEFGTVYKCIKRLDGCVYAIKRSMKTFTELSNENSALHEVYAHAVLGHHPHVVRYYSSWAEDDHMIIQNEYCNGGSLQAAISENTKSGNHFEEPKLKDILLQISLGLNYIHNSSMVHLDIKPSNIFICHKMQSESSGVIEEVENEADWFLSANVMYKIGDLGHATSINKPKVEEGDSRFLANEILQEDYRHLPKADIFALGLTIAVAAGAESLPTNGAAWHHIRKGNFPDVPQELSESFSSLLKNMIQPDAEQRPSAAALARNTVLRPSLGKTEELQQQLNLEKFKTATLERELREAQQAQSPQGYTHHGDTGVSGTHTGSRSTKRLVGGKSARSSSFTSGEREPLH

[4] = target: T2, kinases (KINOMEscan panel) (Homo sapiens, UniProt O76039); settings: kinase CDKL5; NEW KINOMEscan
T2 sequence (O76039 1-960): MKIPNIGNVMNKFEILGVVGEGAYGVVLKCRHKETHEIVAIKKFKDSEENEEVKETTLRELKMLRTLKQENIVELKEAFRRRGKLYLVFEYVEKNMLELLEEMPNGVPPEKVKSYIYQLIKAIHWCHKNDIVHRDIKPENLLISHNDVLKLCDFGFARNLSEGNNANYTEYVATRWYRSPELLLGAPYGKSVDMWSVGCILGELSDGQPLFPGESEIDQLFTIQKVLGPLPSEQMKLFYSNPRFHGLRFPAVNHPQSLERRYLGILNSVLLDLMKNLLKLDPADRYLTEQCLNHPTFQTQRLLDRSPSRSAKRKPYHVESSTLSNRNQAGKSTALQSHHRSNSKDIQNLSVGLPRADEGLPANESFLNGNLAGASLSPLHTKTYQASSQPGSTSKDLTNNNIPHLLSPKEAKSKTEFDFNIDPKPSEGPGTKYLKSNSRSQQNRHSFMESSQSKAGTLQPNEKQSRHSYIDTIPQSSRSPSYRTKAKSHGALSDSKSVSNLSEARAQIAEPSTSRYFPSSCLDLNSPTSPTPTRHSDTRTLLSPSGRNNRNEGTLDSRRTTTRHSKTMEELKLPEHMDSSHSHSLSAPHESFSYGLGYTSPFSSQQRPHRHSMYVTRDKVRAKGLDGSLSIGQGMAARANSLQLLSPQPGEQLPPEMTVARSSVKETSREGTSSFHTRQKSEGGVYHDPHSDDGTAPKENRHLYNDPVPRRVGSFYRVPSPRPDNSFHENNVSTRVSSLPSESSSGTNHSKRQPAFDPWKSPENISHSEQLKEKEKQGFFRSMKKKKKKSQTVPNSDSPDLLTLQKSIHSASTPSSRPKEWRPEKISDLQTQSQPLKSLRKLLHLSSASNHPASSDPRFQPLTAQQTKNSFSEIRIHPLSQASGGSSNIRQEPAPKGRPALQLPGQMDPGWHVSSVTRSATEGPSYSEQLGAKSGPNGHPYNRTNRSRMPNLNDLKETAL

[5] = target: kinases (KINOMEscan panel) (Homo sapiens, UniProt P04049); settings: RAF1; NEW KINOMEscan
Chain of kinases (KINOMEscan panel) (Homo sapiens, UniProt P04049) (P04049 whole entry): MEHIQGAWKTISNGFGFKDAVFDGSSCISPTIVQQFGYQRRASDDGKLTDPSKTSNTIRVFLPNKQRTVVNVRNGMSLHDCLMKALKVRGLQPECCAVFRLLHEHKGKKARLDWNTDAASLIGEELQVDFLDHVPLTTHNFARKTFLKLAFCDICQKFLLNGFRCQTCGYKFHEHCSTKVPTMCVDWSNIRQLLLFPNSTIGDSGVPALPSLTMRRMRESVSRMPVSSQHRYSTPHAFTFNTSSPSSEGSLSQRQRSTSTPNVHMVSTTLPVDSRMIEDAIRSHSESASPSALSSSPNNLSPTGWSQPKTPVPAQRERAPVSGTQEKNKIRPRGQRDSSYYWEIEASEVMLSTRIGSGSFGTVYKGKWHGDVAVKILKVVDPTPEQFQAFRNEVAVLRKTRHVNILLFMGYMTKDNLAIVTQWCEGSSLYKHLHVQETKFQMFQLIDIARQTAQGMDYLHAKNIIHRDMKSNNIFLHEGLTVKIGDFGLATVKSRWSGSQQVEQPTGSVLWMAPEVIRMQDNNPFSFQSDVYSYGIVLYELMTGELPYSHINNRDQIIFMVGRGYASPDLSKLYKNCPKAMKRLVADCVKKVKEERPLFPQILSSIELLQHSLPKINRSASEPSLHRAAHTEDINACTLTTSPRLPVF

[6] = target: T3, kinases (KINOMEscan panel) (Homo sapiens, UniProt Q9NRH2); settings: kinase SNRK; NEW KINOMEscan
T3 sequence (Q9NRH2 1-765): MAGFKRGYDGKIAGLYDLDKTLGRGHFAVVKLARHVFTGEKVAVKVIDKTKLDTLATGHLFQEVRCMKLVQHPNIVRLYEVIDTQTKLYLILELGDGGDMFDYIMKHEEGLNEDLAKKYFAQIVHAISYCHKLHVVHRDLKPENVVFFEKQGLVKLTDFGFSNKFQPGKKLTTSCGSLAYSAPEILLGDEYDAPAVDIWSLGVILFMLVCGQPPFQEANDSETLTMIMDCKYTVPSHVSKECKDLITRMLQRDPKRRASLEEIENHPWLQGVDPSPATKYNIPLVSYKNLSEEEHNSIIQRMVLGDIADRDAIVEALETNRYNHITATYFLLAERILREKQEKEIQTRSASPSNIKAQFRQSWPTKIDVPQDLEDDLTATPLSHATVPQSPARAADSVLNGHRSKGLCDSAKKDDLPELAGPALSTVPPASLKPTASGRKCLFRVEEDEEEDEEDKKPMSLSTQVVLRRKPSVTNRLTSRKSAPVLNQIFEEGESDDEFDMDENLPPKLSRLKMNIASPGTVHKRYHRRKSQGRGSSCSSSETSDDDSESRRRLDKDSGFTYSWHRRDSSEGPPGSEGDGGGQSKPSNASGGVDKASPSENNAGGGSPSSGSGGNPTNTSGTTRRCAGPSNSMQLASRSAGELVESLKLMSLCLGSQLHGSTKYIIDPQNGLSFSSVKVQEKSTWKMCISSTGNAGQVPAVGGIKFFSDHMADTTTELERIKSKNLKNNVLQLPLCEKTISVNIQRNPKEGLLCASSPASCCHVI

Row | Compound | KINOMEscan EPHB6 [1] | KINOMEscan LIMK1 [2] | KINOMEscan WEE2 [3] | KINOMEscan CDKL5 [4] | KINOMEscan RAF1 [5] | KINOMEscan SNRK [6]
1 | Cc1cccc(-c2nc(Nc3ccc4nn(C)cc4c3)c3ccccc3n2)n1 [NK167] | 0 | 0 | 0 | 0 | 4 | 6
2 | Cc1cccc(-c2nc(N(C)c3ccc4ncsc4c3)c3ccccc3n2)n1 [NK-161] | 0 | 0 | 5 | 3 | 0 | 7
